Compound: CC1=C(C(=NN1)C)CC2=C(C3=C(S2)N(C(=O)N(C3=O)C)CC(C)C)C(=O)N4C[C@@H](CO4)O + C[C@@H](Oc1cc(-c2cnn(C3CCNCC3)c2)cnc1N)c1c(Cl)ccc(F)c1Cl [Crizotinib] (partner 1 µM)
Experiment: relative viability (nuclei count vs DMSO), 5 days (fraction); higher = more cells survive
Details: first compound 0.0025 µM
How it was run: (§1)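 Dosing by pin tool came one day after lung cancer cell lines were seeded in 1536-well plates, using either one drug or a fixed anchor-drug dose plus five library-drug doses (not always all listed) in √10 steps. After 5 days, nuclei were counted on 4× images. Relative viability is treated-well nuclei count divided by vehicle-well nuclei count, and values are medians of duplicate plates.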

| Cell Line | relative viability |
| --- | --- |
| NCI-H1703 | 0.84 |
| NCI-H1993 | 1.07 |
| SW 1573 | 0.955 |
| NCI-H838 | 0.869 |
| LCLC-103H | 0.936 |
| NCI-H520 | 0.717 |
| NCI-H2126 | 1.05 |
| EMC-BAC-2 | 0.806 |
| NCI-H2085 | 0.923 |
| Calu-6 | 0.741 |
| HCC-366 | 0.661 |
| NCI-H1666 | 1.04 |
| NCI-H596 | 1.02 |
| LK-2 | 0.234 |
| NCI-H2087 | 0.822 |
| SK-MES-1 | 1.13 |
| H3255 | 0.924 |
| COR-L23 | 0.679 |
| COR-L 105 | 0.969 |
| IA-LM | 0.924 |
| LOU-NH91 | 0.735 |
| ChaGo-K-1 | 1.13 |
| NCI-H2170 | 1.19 |
| NCI-H2405 | 0.91 |
| HOP-62 | 0.807 |
| HCC-44 | 0.765 |
| A549 | 0.763 |
| NCI-H441 | 0.715 |
| NCI-H1299 | 0.961 |

Same assay, conditions: first compound 0.007906 µM

| Cell Line | relative viability |
| --- | --- |
| NCI-H727 | 0.65 |
| NCI-H1650 | 1.08 |
| EBC-1 | 0.182 |
| NCI-H1703 | 0.828 |
| NCI-H1993 | 0.901 |
| SW 1573 | 0.866 |
| NCI-H838 | 1.02 |
| LCLC-103H | 1.03 |
| NCI-H520 | 0.671 |
| NCI-H2126 | 1.02 |
| EMC-BAC-2 | 0.866 |
| NCI-H2085 | 0.726 |
| Calu-6 | 0.691 |
| HCC-366 | 1.13 |
| NCI-H1666 | 1.16 |
| NCI-H596 | 1.06 |

| Cell Line | relative viability |
| --- | --- |
| LK-2 | 0.206 |
| NCI-H2087 | 0.804 |
| SK-MES-1 | 0.995 |
| H3255 | 0.902 |
| COR-L23 | 0.56 |
| COR-L 105 | 0.738 |
| IA-LM | 0.743 |
| LOU-NH91 | 0.733 |
| ChaGo-K-1 | 0.876 |
| NCI-H2170 | 1.37 |
| NCI-H2405 | 0.805 |
| HOP-62 | 1.11 |
| HCC-44 | 0.843 |
| A549 | 0.805 |
| NCI-H441 | 0.774 |
| NCI-H1299 | 0.993 |

Same assay, conditions: first compound 0.025 µM

| Cell Line | relative viability |
| --- | --- |
| NCI-H727 | 0.882 |
| NCI-H1650 | 0.973 |
| EBC-1 | 0.191 |
| NCI-H1703 | 0.898 |
| NCI-H1993 | 0.965 |
| SW 1573 | 0.798 |
| NCI-H838 | 0.747 |
| LCLC-103H | 1.02 |
| NCI-H520 | 0.307 |
| NCI-H2126 | 1.01 |
| EMC-BAC-2 | 0.753 |
| NCI-H2085 | 0.8 |
| Calu-6 | 0.808 |
| HCC-366 | 0.622 |
| NCI-H1666 | 1.05 |
| NCI-H596 | 0.954 |

| Cell Line | relative viability |
| --- | --- |
| LK-2 | 0.218 |
| NCI-H2087 | 0.927 |
| SK-MES-1 | 1.08 |
| H3255 | 0.817 |
| COR-L23 | 0.445 |
| COR-L 105 | 0.668 |
| IA-LM | 0.838 |
| LOU-NH91 | 0.797 |
| NCI-H2170 | 1.24 |
| NCI-H2405 | 0.727 |
| HOP-62 | 1 |
| HCC-44 | 0.88 |
| A549 | 0.663 |
| NCI-H441 | 0.608 |
| NCI-H1299 | 0.923 |

Same assay, conditions: first compound 0.07906 µM

| Cell Line | relative viability |
| --- | --- |
| NCI-H727 | 0.838 |
| NCI-H1650 | 1.04 |
| EBC-1 | 0.214 |
| NCI-H1703 | 0.688 |
| NCI-H1993 | 0.853 |
| SW 1573 | 0.786 |
| NCI-H838 | 0.809 |
| LCLC-103H | 0.991 |
| NCI-H520 | 0.291 |
| NCI-H2126 | 1 |
| EMC-BAC-2 | 0.788 |
| NCI-H2085 | 0.89 |
| Calu-6 | 0.746 |
| HCC-366 | 0.641 |
| NCI-H1666 | 0.977 |
| NCI-H596 | 1.04 |

| Cell Line | relative viability |
| --- | --- |
| LK-2 | 0.276 |
| NCI-H2087 | 0.923 |
| SK-MES-1 | 0.944 |
| H3255 | 0.816 |
| COR-L23 | 0.403 |
| COR-L 105 | 0.748 |
| IA-LM | 0.885 |
| LOU-NH91 | 0.741 |
| ChaGo-K-1 | 1.09 |
| NCI-H2170 | 1.13 |
| NCI-H2405 | 0.748 |
| HOP-62 | 0.819 |
| HCC-44 | 0.811 |
| A549 | 0.858 |
| NCI-H441 | 0.889 |
| NCI-H1299 | 0.941 |

Same assay, conditions: first compound 0.25 µM

| Cell Line | relative viability |
| --- | --- |
| NCI-H727 | 0.754 |
| NCI-H1650 | 1.06 |
| EBC-1 | 0.184 |
| NCI-H1703 | 0.777 |
| NCI-H1993 | 0.932 |
| SW 1573 | 0.812 |
| NCI-H838 | 0.885 |
| LCLC-103H | 1.17 |
| NCI-H520 | 0.36 |
| NCI-H2126 | 1.02 |
| EMC-BAC-2 | 0.866 |
| NCI-H2085 | 0.862 |
| Calu-6 | 1 |
| HCC-366 | 0.825 |
| NCI-H1666 | 1.08 |
| NCI-H596 | 1.16 |

| Cell Line | relative viability |
| --- | --- |
| LK-2 | 0.204 |
| NCI-H2087 | 0.937 |
| SK-MES-1 | 0.966 |
| H3255 | 0.926 |
| COR-L23 | 0.386 |
| COR-L 105 | 0.771 |
| IA-LM | 1.03 |
| LOU-NH91 | 0.732 |
| ChaGo-K-1 | 1.25 |
| NCI-H2170 | 1.26 |
| NCI-H2405 | 0.805 |
| HOP-62 | 1.12 |
| HCC-44 | 0.929 |
| A549 | 1.07 |
| NCI-H441 | 0.945 |
| NCI-H1299 | 0.948 |

Compound: CC1=C(C(=NN1)C)CC2=C(C3=C(S2)N(C(=O)N(C3=O)C)CC(C)C)C(=O)N4C[C@@H](CO4)O + C[C@]1(O)C[C@@H](c2nc(-c3ccc4ccc(-c5ccccc5)nc4c3)c3c(N)nccn32)C1 [Linsitinib] (partner 1 µM)
Experiment: as above
Details: first compound 0.0025 µM
How it was run: as §1

| Cell Line | relative viability |
| --- | --- |
| NCI-H727 | 0.233 |

Source: the supplement of paper PMC10307832
